Read-outs that look alike come from different tables or passages of the source. Marks after values point to notes of the source that are not given here.
Key:
[1] = target: T1, recombinant rat GluN1/GluN2B (Rattus norvegicus, UniProt P35439+Q00960); assay: Two-electrode voltage-clamp recordings in Xenopus laevis oocytes, GluN2B; type: cell-based; settings: oocytes, 100 μM glutamate and 30 μM glycine
T1 construct: expressed in transfected cells; host or cells: Xenopus laevis oocytes injected with cRNA (GluN1:GluN2 ratio 1:2)
Procedure, shortened: (§1)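 Oocytes injected with rat GluN1/GluN2 cRNA (1:2), held 2–5 days at 15–17 °C, clamped at −40 mV in Ba2+-containing recording solution, pH 7.4, 23 °C. Compounds applied (up to 100 μM) with 100 μM glutamate plus 30 μM glycine. IC50 and Hill slope from concentration-response fits of averaged current inhibition.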

[2] = target: T2, recombinant rat GluN1/GluN2B (Rattus norvegicus, UniProt Q00960); assay: as above; type: cell-based; settings: for I3 μM/Icontrol (mean ± SEM, %) GluN2B: 3 μM compound with 100 μM glutamate and 30 μM glycine, control set as 1; for GluN2B IC50: oocytes, 100 μM glutamate and 30 μM glycine
T2 construct: expressed in transfected cells; host or cells: Xenopus laevis oocytes injected with cRNA (GluN1:GluN2 ratio 1:2)
Procedure, shortened: as §1

[3] = target: T3, recombinant rat GluN1/GluN2C (Rattus norvegicus, UniProt P35439+Q00961); assay: Two-electrode voltage-clamp recordings in Xenopus laevis oocytes, GluN2C; type: cell-based
T3 construct: expressed in transfected cells; host or cells: Xenopus laevis oocytes injected with cRNA (GluN1:GluN2 ratio 1:2)
Procedure, shortened: as §1

[4] = target: T4, recombinant rat GluN1/GluN2C (Rattus norvegicus, UniProt Q00961); assay: as above; type: cell-based; settings: for I3 μM/Icontrol (mean ± SEM, %) GluN2C: 3 μM compound with 100 μM glutamate and 30 μM glycine, control set as 1; for GluN2C IC50: oocytes, 100 μM glutamate and 30 μM glycine
T4 construct: expressed in transfected cells; host or cells: Xenopus laevis oocytes injected with cRNA (GluN1:GluN2 ratio 1:2)
Procedure, shortened: as §1

[5] = target: T5, recombinant rat GluN1/GluN2A (Rattus norvegicus, UniProt P35439+Q00959); assay: Two-electrode voltage-clamp recordings in Xenopus laevis oocytes, GluN2A; type: cell-based; settings: oocytes, 100 μM glutamate and 30 μM glycine
T5 construct: expressed in transfected cells; host or cells: Xenopus laevis oocytes injected with cRNA (GluN1:GluN2 ratio 1:2)
Procedure, shortened: as §1

[6] = target: T6, recombinant rat GluN1/GluN2A (Rattus norvegicus, UniProt Q00959); assay: as above; type: cell-based; settings: for I3 μM/Icontrol (mean ± SEM, %) GluN2A: 3 μM compound with 100 μM glutamate and 30 μM glycine, control set as 1; for GluN2A IC50: oocytes, 100 μM glutamate and 30 μM glycine
T6 construct: expressed in transfected cells; host or cells: Xenopus laevis oocytes injected with cRNA (GluN1:GluN2 ratio 1:2)
Procedure, shortened: as §1

[7] = target: T7, recombinant rat GluN1/GluN2D (Rattus norvegicus, UniProt Q62645); assay: Two-electrode voltage-clamp recordings in Xenopus laevis oocytes, GluN2D; type: cell-based; settings: for GluN2D IC50: oocytes, 100 μM glutamate and 30 μM glycine
T7 construct: expressed in transfected cells; host or cells: Xenopus laevis oocytes injected with cRNA (GluN1:GluN2 ratio 1:2)
Procedure, shortened: as §1

[8] = target: T8, recombinant rat GluN1/GluN2D (Rattus norvegicus, UniProt P35439+Q62645); assay: as above; type: cell-based
T8 construct: expressed in transfected cells; host or cells: Xenopus laevis oocytes injected with cRNA (GluN1:GluN2 ratio 1:2)
Procedure, shortened: as §1

[9] = system: recombinant GluN2A-D subunits; assay: Two-electrode voltage-clamp recordings, statements on all receptors; type: cell-based, rat
Description: All target compounds were evaluated for activity by the Traynelis laboratory at Emory University using two-electrode voltage-clamp recordings performed in Xenopus laevis oocytes expressing recombinant GluN2A-D subunits (Table 1). […] Two ester compounds 997-65 and 997-66 also performed no inhibition at GluN2A to GluN2D receptors. […] Consequently, for the compounds that Acker et al. already published, it was necessary to increase the concentration to 100 μM when collecting data for a concentration effect curve. […] Therefore, under this condition, we can only conclude that compound 997-67 remained potent at GluN2C/D-containing receptors, but its selectivity over GluN2A- and GluN2B-containing receptors could not be compared to 997-57. […] Finally, replacing the carboxylic acid to the bio-isostere amide yielded compounds 997-96 and 997-115, which dropped the potency 2- to 4-fold in comparison to their corresponding acids 997-74 and 997-114.
Two-electrode voltage-clamp recordings were performed in Xenopus laevis oocytes that were injected with mRNA to express recombinant rat GluN1/GluN2A, GluN1/GluN2B, GluN1/GluN2C, and GluN1/GluN2D. The recordings using unfertilized oocytes from Xenopus laevis were permitted by Emory University Institutional Animal Care and Use Committee (IACUC). An automatic injector (Nanoject II, Drummond Scientific) was used for cRNA injection using the pipettes filled with mineral oil. The cRNA that transcribed in vitro via the mMessage Machine kit (Ambion) was diluted with nuclease-free water, and then injected at GluN1/GluN2 with a ratio of 1:2. The oocytes were stored in Barth's solution that contained 88 mM NaCl, 5.0 mM Tris-HCl, 2.4 mM NaHCO3, 1.0 mM KCl, 0.84 mM MgSO4, 0.41 mM CaCl2, 0.33 mM Ca(NO3)2, 0.1 mg/ml gentamycin sulfate, 1.0 U/ml penicillin, and 1 μg/ml streptomycin at a pH of 7.4 and temperatures of 15-17° C. for two to five days before the two-electrode voltage-clamp recordings. When recording, the oocytes were placed in a perfusion chamber and continually washed with the recording solution comprised of 90 mM NaCl, 1.0 mM KCl, 0.50 mM BaCl2, 0.005 mM EDTA, and 10 mM HEPES at a pH of 7.4 and a temperature of 23° C. Glass electrodes with a tip resistance of 0.5 to 2.5 MΩ were obtained from thin-walled glass capillary tubes. Voltage electrodes and current electrodes were filled with 0.3 M and 3.0 M KCl, respectively. The recordings were executed with the oocytes membrane potential holding at −40 m V by an OC-725 amplifier (Warner Instrument Co). All compounds were dissolved in dimethyl sulfoxide (DMSO) as 20 mM stock solutions and future diluted to reach the desired concentration (0.05-0.5% (vol/vol) DMSO) in recording solution comprised of 30 μM glycine and 100 μM glutamate. Each compound was recorded 3-7 times in the least 4 oocytes from at least 2 different Xenopus laevis.
To evaluate the inhibition of compounds, the concentration-response curve was fitted with the average two-electrode voltage-clamp recording results with the equation
[formula] • where IC50 is the concentration of compounds that inhibit half maximal of the current response and N is the Hill slope.

[10] = mean IC50 with bottom and top 95% confidence interval, read-out: Avg. GluN2C IC50 (95% CI)
[11] = oocytes, 100 μM glutamate and 30 μM glycine, read-out: GluN2C IC50
[12] = mean IC50 with bottom and top 95% confidence interval, read-out: Avg. GluN2D IC50 (95% CI)
[13] = oocytes, 100 μM glutamate and 30 μM glycine, read-out: GluN2D IC50

T3 sequence (Q00961 20-1237, other chains not shown): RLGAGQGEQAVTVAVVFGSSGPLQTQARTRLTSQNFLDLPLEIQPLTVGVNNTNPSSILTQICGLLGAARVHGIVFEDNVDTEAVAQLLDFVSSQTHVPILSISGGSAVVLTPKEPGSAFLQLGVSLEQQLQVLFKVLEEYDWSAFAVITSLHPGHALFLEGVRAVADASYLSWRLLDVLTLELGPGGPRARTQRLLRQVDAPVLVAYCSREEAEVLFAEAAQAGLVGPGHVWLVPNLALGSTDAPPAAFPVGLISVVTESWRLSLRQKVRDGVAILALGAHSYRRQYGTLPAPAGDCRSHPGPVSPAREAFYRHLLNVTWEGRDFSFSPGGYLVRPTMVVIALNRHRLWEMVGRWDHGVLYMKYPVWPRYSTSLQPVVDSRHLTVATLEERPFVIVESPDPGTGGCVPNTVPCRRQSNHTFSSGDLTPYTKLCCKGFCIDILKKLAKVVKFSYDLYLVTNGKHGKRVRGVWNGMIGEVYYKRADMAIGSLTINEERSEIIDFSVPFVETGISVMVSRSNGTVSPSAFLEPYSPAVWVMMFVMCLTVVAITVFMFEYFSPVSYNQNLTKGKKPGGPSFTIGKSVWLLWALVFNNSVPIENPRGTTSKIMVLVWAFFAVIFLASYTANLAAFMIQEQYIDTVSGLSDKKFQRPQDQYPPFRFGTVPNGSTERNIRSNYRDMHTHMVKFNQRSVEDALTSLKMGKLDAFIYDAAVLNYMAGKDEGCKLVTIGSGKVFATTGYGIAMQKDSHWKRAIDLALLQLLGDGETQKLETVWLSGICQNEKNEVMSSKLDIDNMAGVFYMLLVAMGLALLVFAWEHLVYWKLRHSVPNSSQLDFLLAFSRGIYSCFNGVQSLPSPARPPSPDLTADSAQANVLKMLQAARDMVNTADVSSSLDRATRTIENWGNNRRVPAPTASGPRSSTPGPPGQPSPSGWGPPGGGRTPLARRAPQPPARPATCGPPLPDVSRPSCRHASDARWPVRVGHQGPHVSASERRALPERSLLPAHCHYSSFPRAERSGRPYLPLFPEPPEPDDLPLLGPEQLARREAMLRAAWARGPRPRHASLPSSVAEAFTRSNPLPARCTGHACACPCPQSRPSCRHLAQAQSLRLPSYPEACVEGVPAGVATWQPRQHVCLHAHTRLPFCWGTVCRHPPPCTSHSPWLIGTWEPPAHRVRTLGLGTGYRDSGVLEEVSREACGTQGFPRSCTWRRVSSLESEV
T4 sequence (Q00961 20-1237, other chains not shown): as above
T1 sequence (Q00960 27-1482, other chains not shown): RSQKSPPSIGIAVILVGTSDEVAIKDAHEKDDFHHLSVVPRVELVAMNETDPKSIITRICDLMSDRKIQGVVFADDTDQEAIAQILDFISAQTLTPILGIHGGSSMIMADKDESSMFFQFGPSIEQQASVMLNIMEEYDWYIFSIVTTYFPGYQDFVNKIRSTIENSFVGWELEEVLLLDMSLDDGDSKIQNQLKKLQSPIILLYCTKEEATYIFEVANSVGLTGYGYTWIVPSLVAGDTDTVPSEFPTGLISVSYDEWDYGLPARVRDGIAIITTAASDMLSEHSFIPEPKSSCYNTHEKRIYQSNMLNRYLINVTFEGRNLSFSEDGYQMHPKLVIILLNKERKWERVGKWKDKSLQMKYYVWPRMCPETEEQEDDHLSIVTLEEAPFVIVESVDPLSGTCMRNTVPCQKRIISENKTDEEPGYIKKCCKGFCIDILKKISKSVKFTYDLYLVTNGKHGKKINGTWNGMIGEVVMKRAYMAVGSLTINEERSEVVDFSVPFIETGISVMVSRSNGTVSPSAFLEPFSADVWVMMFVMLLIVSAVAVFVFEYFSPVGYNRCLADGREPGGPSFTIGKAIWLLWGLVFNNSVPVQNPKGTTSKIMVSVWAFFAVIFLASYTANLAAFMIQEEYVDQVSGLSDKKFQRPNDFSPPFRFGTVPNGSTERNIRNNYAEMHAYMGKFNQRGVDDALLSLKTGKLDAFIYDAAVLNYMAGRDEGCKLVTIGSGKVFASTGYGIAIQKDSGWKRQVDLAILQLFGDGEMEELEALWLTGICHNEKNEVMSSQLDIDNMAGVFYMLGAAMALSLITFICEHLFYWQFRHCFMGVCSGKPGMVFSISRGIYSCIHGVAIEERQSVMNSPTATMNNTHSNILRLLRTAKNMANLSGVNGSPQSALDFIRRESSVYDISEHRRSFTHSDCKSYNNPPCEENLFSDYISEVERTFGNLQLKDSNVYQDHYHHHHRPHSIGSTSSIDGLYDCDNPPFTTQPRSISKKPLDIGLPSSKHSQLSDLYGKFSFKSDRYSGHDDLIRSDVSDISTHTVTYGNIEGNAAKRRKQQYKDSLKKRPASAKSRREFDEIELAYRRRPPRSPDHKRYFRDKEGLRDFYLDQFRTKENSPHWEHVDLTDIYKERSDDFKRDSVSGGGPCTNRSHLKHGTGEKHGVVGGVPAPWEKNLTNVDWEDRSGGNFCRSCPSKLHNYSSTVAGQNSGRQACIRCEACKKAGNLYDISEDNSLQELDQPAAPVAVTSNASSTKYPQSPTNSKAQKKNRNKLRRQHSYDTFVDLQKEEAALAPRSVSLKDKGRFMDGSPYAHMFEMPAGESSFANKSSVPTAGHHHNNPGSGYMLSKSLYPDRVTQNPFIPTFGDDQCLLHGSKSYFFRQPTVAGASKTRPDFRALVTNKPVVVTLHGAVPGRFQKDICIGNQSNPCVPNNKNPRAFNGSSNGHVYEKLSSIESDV
T2 sequence (Q00960 27-1482, other chains not shown): as above

Compound	IC50 [1] [µM]	IC50 [3, 11] [nM]	IC50 [5] [µM]	IC50 [8, 13] [nM]	activity at all receptors (GluN2A to GluN2D), in words [9]	GluN2B IC50 [2]	GluN2C IC50 [4]	GluN2A IC50 [6]	GluN2D IC50 [7]	2B IC50 / 2D IC50 ([7]; ratio of IC50 values)	other results
Cc1ccc2[nH]c(=O)c(C3=NN(C(=O)C(F)(F)CC(=O)O)C(c4ccc(Cl)cc4)C3)c(-c3ccc(Cl)cc3)c2c1 (single isomer, unassigned; (+)) [(+)-997-90]	1.8	2100	4.1	< 1000							I3 μM/Icontrol (mean ± SEM, %) GluN2B ([2]; listed as (+)-90): 53 ± 3.6%; IC50 [3, 10]: 2100 nM; I3 μM/Icontrol (mean ± SEM, %) GluN2C ([4]; listed as (+)-90): 36 ± 3.0%; I3 μM/Icontrol (mean ± SEM, %) GluN2A ([6]; listed as (+)-90): 72 ± 2.9%; I/Icontrol (mean ± SEM, %) GluN2D, data with ** ([7]; 1 μM compound with 100 μM glutamate and 30 μM glycine, control set as 1): 31 ± 9.8** %; IC50 [8, 12]: 660 nM
Cc1ccc2[nH]c(=O)c(C3=NN(C(=O)C(F)(F)CC(=O)O)C(c4ccc(Cl)cc4)C3)c(-c3ccc(Cl)cc3)c2c1 (single isomer, unassigned; (-)) [(−)-997-90]	1.9	200	1.9	130							I3 μM/Icontrol (mean ± SEM, %) GluN2B ([2]; listed as (−)-90): 34 ± 5.0%; IC50 [3, 10]: 210 nM; I3 μM/Icontrol (mean ± SEM, %) GluN2C ([4]; listed as (−)-90): 7.0 ± 2.2%; I3 μM/Icontrol (mean ± SEM, %) GluN2A ([6]; listed as (−)-90): 33 ± 4.5%; I3 μM/Icontrol (mean ± SEM, %) GluN2D ([7]; 3 μM compound with 100 μM glutamate and 30 μM glycine, control set as 1): 3.4 ± 1.2%; IC50 [8, 12]: 130 nM
CCOC(=O)C(F)(F)CC(=O)N1N=C(c2c(-c3cccc(F)c3)c3ccccc3[nH]c2=O)CC1c1ccc(Cl)cc1 (stereo not shown) [997-65, Ethyl 4-{5-(4-chlorophenyl)-3-[4-(3-fluorophenyl)-2-oxo-1,2-dihydroquinolin-3-yl]-4,5-dihydro-1H-pyrazol-1-yl}-2,2-difluoro-4-oxobutanoate]					no inhibition	NE (NE indicates less than 50% inhibition at 30 μM.)	NE (NE indicates less than 50% inhibition at 30 μM.)	NE (NE indicates less than 50% inhibition at 30 μM.)	NE (NE indicates less than 50% inhibition at 30 μM.)		
CCOC(=O)C(F)(F)CC(=O)N1N=C(c2c(-c3ccc(Cl)cc3)c3ccccc3[nH]c2=O)CC1c1ccc(Cl)cc1 (stereo not shown) [997-66, Ethyl 4-{5-(4-chlorophenyl)-3-[4-(4-chlorophenyl)-2-oxo-1,2-dihydroquinolin-3-yl]-4,5-dihydro-1H-pyrazol-1-yl}-2,2-difluoro-4-oxobutanoate]					no inhibition	NE (NE indicates less than 50% inhibition at 30 μM.)	NE (NE indicates less than 50% inhibition at 30 μM.)	NE (NE indicates less than 50% inhibition at 30 μM.)	NE (NE indicates less than 50% inhibition at 30 μM.)		
O=c1[nH]c2ccccc2c(-c2ccc(Cl)cc2)c1C1=NNC(c2ccc(Cl)cc2)C1 (stereo not shown) [997-70, 4-(4-chlorophenyl)-3-[5-(4-chlorophenyl)-4,5-dihydro-1H-pyrazol-3-yl]quinolin-2(1H)-one]					inactive	NE (NE indicates less than 50% inhibition at 30 μM.)	NE (NE indicates less than 50% inhibition at 30 μM.)	NE (NE indicates less than 50% inhibition at 30 μM.)	NE (NE indicates less than 50% inhibition at 30 μM.)		
O=C(/C=C/c1ccc(Cl)cc1)c1c(-c2cccc(F)c2)c2ccccc2[nH]c1=O [997-71, (E)-3-[3-(4-chlorophenyl)acryloyl]-4-(3-fluorophenyl)quinolin-2(1H)-one]					inactive	NE (NE indicates less than 50% inhibition at 30 μM.)	NE (NE indicates less than 50% inhibition at 30 μM.)	NE (NE indicates less than 50% inhibition at 30 μM.)	NE (NE indicates less than 50% inhibition at 30 μM.)		
Cc1c(C2=NN(C(=O)CCC(=O)O)C(c3ccc(Cl)cc3)C2)c(=O)[nH]c2ccccc12 (stereo not shown) [997-76, 4-(5-(4-chlorophenyl)-3-(4-methyl-2-oxo-1,2-dihydroquinolin-3-yl)-4,5-dihydro-1H-pyrazol-1-yl)-4-oxobutanoic acid]					inactive	NE (NE indicates less than 50% inhibition at 30 μM.)	NE (NE indicates less than 50% inhibition at 30 μM.)	NE (NE indicates less than 50% inhibition at 30 μM.)	NE (NE indicates less than 50% inhibition at 30 μM.)		
O=C(CC(F)(F)C(=O)O)N1N=C(c2c(-c3ccc(Cl)cc3)c3ccccc3[nH]c2=O)CC1c1ccc(Cl)cc1 (stereo not shown) [997-114, 4-(5-(4-chlorophenyl)-3-(4-(4-chlorophenyl)-2-oxo-1,2-dihydroquinolin-3-yl)-4,5-dihydro-1H-pyrazol-1-yl)-2,2-difluoro-4-oxobutanoic acid]	8.15	338	5.67							48	2A IC50 / 2D IC50 ([7]; ratio of IC50 values): 33; IC50 ([8]; read-out: IC50 at GluN2D-containing receptors): 170 nM
O=C(O)CC(F)(F)C(=O)N1N=C(c2ccccc2-c2ccc(Cl)cc2)CC1c1ccc(OC(F)(F)F)cc1 (stereo not shown) [997-117, 4-(3-(4′-chloro-[1,1′-biphenyl]-2-yl)-5-(4-(trifluoromethoxy)phenyl)-4,5-dihydro-1H-pyrazol-1-yl)-3,3-difluoro-4-oxobutanoic acid]	8.79	3440	17.2	2870						3	
O=C(O)CC(F)(F)C(=O)N1N=C(c2ccccc2-c2ccc(Cl)cc2)CC1c1ccc(Cl)s1 (stereo not shown) [997-118, 4-(3-(4′-chloro-[1,1′-biphenyl]-2-yl)-5-(5-chlorothiophen-2-yl)-4,5-dihydro-1H-pyrazol-1-yl)-3,3-difluoro-4-oxobutanoic acid]	12	3690	9.01	3740						3	

— patent publication US12391664B2, “GluN2C/D subunit selective antagonists of the N-methyl-D-aspartate receptor” (Emory University, priority 2018, dated 2025)
